Biological target: T1, EED (1-441)-His protein (Homo sapiens, UniProt O75530)
T1 construct: 20 nM EED (1-441)-His protein
Experiment: EED-H3K27Me3 peptide competition binding assay by AlphaScreen
Conditions: IC50 class, Table 4B, read-out: Alpha screen
Description: EED-H3K27Me3 Peptide Competition Binding Assay by AlphaScreen (α-Screen):
The compounds at each concentration (2.5 μl of each) were transferred into a 384-well Perkin Elmer OptiPlate-384 white plates. 5 μl of solutions containing 20 nM EED (1-441)-His protein in the buffer (25 mM HEPES, pH 8, 0.02% Tween-20, 0.5% BSA) were added to the wells and then incubated with compound for 15 min. 2.5 μl of solutions containing 20 nM biotin-H3K27Me3 (19-33) peptide in the buffer (25 mM HEPES, pH 8, 0.02% Tween-20, 0.5% BSA) were added to the wells and then incubated with compound for 30 min. AlphaScreen detection beads mix was prepared immediately before use by mixing nickel chelate acceptor beads and streptavidin donor beads in a 1:1 ratio (Perkin Elmer, Product No. 6760619C/M/R) into the buffer described above. Then 10 μl of the detection beads mix was added to the plate and incubated in the dark at RT for 1 h. The final concentration of donor and acceptor beads was 10 μg/ml for each. Plates were read on CLARIOStar plate reader (BMG Labtech) using the AlphaScreen setting adapted for optimal signal detection with a 615 nm filter, after sample excitation at 680 nm. The emission signal at 615 nm was used to quantify compound inhibition. AlphaScreen signals were normalized based on the reading coming from the positive (maximum signal control) and negative controls (minimum signal control) to give percentage of activities left. The data were then fit to a dose response equation to get the IC50 values.

T1 sequence (O75530 whole entry): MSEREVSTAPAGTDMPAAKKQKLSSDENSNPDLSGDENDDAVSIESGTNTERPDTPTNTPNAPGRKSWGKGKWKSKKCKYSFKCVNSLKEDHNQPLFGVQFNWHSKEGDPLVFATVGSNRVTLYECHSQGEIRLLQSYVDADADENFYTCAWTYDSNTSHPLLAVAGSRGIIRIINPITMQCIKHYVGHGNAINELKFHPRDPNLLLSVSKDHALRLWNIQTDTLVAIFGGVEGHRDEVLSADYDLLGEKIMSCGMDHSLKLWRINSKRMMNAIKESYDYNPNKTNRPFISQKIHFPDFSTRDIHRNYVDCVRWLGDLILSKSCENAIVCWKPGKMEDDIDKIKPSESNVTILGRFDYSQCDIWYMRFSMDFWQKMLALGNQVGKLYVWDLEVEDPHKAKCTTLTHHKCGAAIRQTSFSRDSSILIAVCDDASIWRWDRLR

SMILES | IC50
CCc1ccc2c(n1)CN(CC(F)F)C(=O)c1ncn3c(NCc4c(F)ccc5c4CCO5)ncc-2c13 [E 13, 4-(2,2-difluoroethyl)-7-ethyl-12-(((5-fluoro-2,3-dihydrobenzofuran-4-yl)methyl)amino)-4,5-dihydro-3H-2,4,6,11,12a-pentaazabenzo[4,5]cycloocta [1,2,3-cd]inden-3-one] | < 10 nM
CC(C)c1ccc2c(n1)CN(CC(F)F)C(=O)c1ncn3c(NCc4c(F)ccc5c4CCO5)ncc-2c13 [E 47, 4-(2,2-difluoroethyl)-12-(((5-fluoro-2,3-dihydrobenzofuran-4-yl)methyl)amino)-7-isopropyl-4,5-dihydro-3H-2,4,6,11,12a-pentaazabenzo[4,5]cycloocta[1,2,3-cd]inden-3-one] | < 10 nM
Cc1ccc2c(n1)CCN(CC(F)(F)F)C(=O)c1ncn3c(NCc4c(F)ccc5c4CCO5)ncc-2c13 [E 30, 13-(((5-fluoro-2,3-dihydrobenzofuran-4-yl)methyl)amino)-8-methyl-4-(2,2,2-trifluoroethyl)-5,6-dihydro-2,4,7,12,13a-pentaazabenzo[4,5] cyclonona[1,2,3-cd]inden-3(4H)-one] | 10 to 100 nM
Cc1ccc2c(n1)CN(CC(F)F)C(=O)c1ncn3c(NCc4c(F)ccc5c4CCO5)ncc-2c13 [E 6, 4-(2,2-difluoroethyl)-12-(((5-fluoro-2,3-dihydro-benzofuran-4-yl)methyl)amino)-7-methyl-4,5-dihydro-3H-2,4,6,11,12a-pentaazabenzo[4,5] cycloocta[1,2,3-cd]inden-3-one] | < 10 nM
Fc1ccc2c(c1CNc1ncc3c4c(ncn14)-c1nccn1Cc1cc(C(F)(F)F)ncc1-3)CCO2 [E 33, N-((5-fluoro-2,3-dihydrobenzofuran-4-yl)methyl)-8-(trifluoromethyl)-6H-2,3,5a,9,12,13a-hexaaza-benzo[4,5]cyclopenta[7,8]cycloocta[1,2,3-cd]inden-13-amine] | 10 to 100 nM
O=C1c2ncn3c(NCc4c(F)ccc5c4CCO5)ncc(c23)-c2ccc(C3COCCO3)nc2CN1CC(F)(F)F (stereo not drawn) [E 48, 7-(1,4-dioxan-2-yl)-12-(((5-fluoro-2,3-dihydrobenzo-furan-4-yl)methyl)amino)-4-(2,2,2-trifluoroethyl)-4,5-dihydro-3H-2,4,6, 11,12a-pentaazabenzo[4,5] cycloocta[1,2,3-cd]inden-3-one] | < 10 nM
Cc1ccc2c(n1)Cc1conc1-c1ncn3c(NCc4c(F)ccc5c4CCO5)ncc-2c13 [E 36, N-((5-fluoro-2,3-dihydrobenzofuran-4-yl)methyl)-8-methyl-6H-4-oxa-2,3,7,12,13a-pentaazabenzo [4,5]cyclopenta[7,8]cycloocta[1,2,3-cd]inden-13-amine] | 10 to 100 nM
Cc1cnc2n1Cc1ncccc1-c1cnc(NCc3c(F)ccc4c3CCO4)n3cnc-2c13 [E 17, N-((5-fluoro-2,3-dihydrobenzofuran-4-yl)methyl)-5-methyl-6H-2,3,5a,7,12,13a-hexaazabenzo[4,5] cyclopenta[7,8]cycloocta[1,2,3-cd]inden-13-amine] | < 10 nM
Cc1cnc2n1Cc1cc(C(F)(F)F)ncc1-c1cnc(NCc3c(F)ccc4c3CCO4)n3cnc-2c13 [E 10, N-((5-fluoro-2,3-dihydrobenzofuran-4-yl)methyl)-5-methyl-8-(trifluoromethyl)-6H-2,3,5a,9,12,13a-hexaazabenzo[4,5]cyclopenta[7,8]cycloocta[1,2,3-cd]inden-13-amine] | < 10 nM
O=C1c2ncn3c(NCc4c(F)ccc5c4CCO5)ncc(c23)-c2ccc(C3CCC3)nc2CN1CC(F)(F)F [E 52, 7-cyclobutyl-12-(((5-fluoro-2,3-dihydrobenzofuran-4-yl)methyl)amino)-4-(2,2,2-trifluoroethyl)-4,5-dihydro-3H-2,4,6,11,12a-pentaazabenzo[4,5] cycloocta[1,2,3-cd]inden-3-one] | < 10 nM

Same assay, conditions: Table 4A, read-out: Alpha screen

SMILES | IC50
O=C1c2ncn3c(NCc4c(F)ccc5c4CCO5)ncc(c23)-c2ccsc2CN1C1CC1 [Compound 88, 4-cyclopropyl-11-(((5-fluoro-2,3-dihydrobenzofuran-4-yl)methyl)amino)-4,5-dihydro-3H-6-thia-2,4, 10,11a-tetraazacyclopenta[4,5]cycloocta[1,2,3-cd] inden-3-one] | 12.3 nM
O=C1c2ncn3c(NCc4c(F)ccc5c4CCO5)ncc(c23)-c2cnc(C(F)(F)F)cc2CN1CCF [Compound 72, 12-(((5-fluoro-2,3-dihydrobenzofuran-4-yl)methyl)amino)-4-(2-fluoroethyl)-7-(trifluoromethyl)-4,5-dihydro-3H-2,4,8,11,12a-pentaazabenzo[4,5] cycloocta[1,2,3-cd]inden-3-one] | 2.69 nM
CN1Cc2nc(C(F)(F)F)ccc2-c2cnc(NCc3c(F)ccc4c3CCO4)n3cnc(c23)C1=O [Compound 33, 12-(((5-fluoro-2,3-dihydrobenzofuran-4-yl)methyl)amino)-4-methyl-7-(trifluoromethyl)-4,5-dihydro-3H-2,4,6,11,12a-pentaazabenzo[4,5]cycloocta [1,2,3-cd]inden-3-one] | 1.06 nM
O=C1c2ncn3c(NCc4c(F)ccc5c4CCO5)ncc(c23)-c2ccc(C(F)(F)F)nc2CN1CC1CCOC1 (stereo not drawn) [Compound 52, 12-(((5-fluoro-2,3-dihydrobenzofuran-4-yl)methyl)amino)-4-((tetrahydrofuran-3-yl)methyl)-7-(trifluoro-methyl)-4,5-dihydro-3H-2,4,6,11,12a-pentaaza benzo[4,5]cycloocta[1,2,3-cd]inden-3-one] | 0.7 nM
O=C1OCc2cc(OC(F)(F)F)ccc2-c2cnc(NCc3c(F)ccc4c3CCO4)n3cnc1c23 [Compound 31, 12-(((5-fluoro-2,3-dihydrobenzofuran-4-yl)methyl)amino)-7-(trifluoromethoxy)-3H,5H-4-oxa-2,11, 12a-triazabenzo[4,5]cycloocta[1,2,3-cd]inden-3-one] | 0.604 nM
CC1(O)CC(CN2Cc3nc(C(F)(F)F)ccc3-c3cnc(NCc4c(F)ccc5c4CCO5)n4cnc(c34)C2=O)C1 (stereo not drawn) [Compound 47, 12-(((5-fluoro-2,3-dihydrobenzofuran-4-yl)methyl)amino)-4-((3-hydroxy-3-methylcyclobutyl)methyl)-7-(trifluoromethyl)-4,5-dihydro-3H-2,4,6,11,12a-pentaazabenzo[4,5]cycloocta[1,2,3-cd]inden-3-one] | 0.91 nM
CC(C)(F)CN1Cc2cc(C(F)(F)F)ccc2-c2cnc(NCc3c(F)ccc4c3CCO4)n3cnc(c23)C1=O [Compound 62, 12-(((5-fluoro-2,3-dihydrobenzofuran-4-yl)methyl)amino)-4-(2-fluoro-2-methylpropyl)-7-(trifluoromethyl)-4,5-dihydro-3H-2,4, 11,12a-tetraazabenzo [4,5]cycloocta[1,2,3-cd]inden-3-one] | 1.44 nM
O=S1(=O)Cc2ncccc2-c2cnc(NCc3c(F)ccc4c3CCO4)n3cnc1c23 [Compound 94, 11-(((5-fluoro-2,3-dihydrobenzofuran-4-yl)methyl)amino)-4H-3-thia-2,5,10,11a-tetraazadibenzo [cd,f]azulene 3,3-dioxide] | 14 nM
O=C1c2ncn3c(NCc4c(F)ccc5c4CCO5)ncc(c23)-c2ccc(C(F)(F)F)nc2CN1C1CCOCC1 [Compound 51, 12-(((5-fluoro-2,3-dihydrobenzofuran-4-yl)methyl)amino)-4-(tetrahydro-2H-pyran-4-yl)-7-(trifluoromethyl)-4,5-dihydro-3H-2,4,6,11, 12a-pentaazabenzo [4,5]cycloocta[1,2,3-cd]inden-3-one] | 0.7 nM
O=C1c2ncn3c(NCc4c(F)ccc5c4CCO5)ncc(c23)-c2ccc(C(F)(F)F)cc2CN1CC(F)F [Compound 81, 4-(2,2-difluoroethyl)-12-(((5-fluoro-2,3-dihydro-benzofuran-4-yl)methyl)amino)-7-(trifluoromethyl)-4,5-dihydro-3H-2,4,11,12a-tetraazabenzo[4,5] cycloocta[1,2,3-cd]inden-3-one] | 1.7 nM
O=C1OCc2cc(C(F)(F)F)ccc2-c2cnc(NCc3cccc4c3OCO4)n3cnc1c23 [Compound 27, 12-((benzo[d][1,3]dioxol-4-ylmethyl)amino)-7-(trifluoromethyl)-3H,5H-4-oxa-2,11,12a-triazabenzo [4,5]cycloocta[1,2,3-cd]inden-3-one] | 5.87 nM
O=C1NCc2cc(C(F)(F)F)ccc2-c2cnc(NCc3c(F)ccc4c3CCO4)n3cnc1c23 [Compound 19, 12-(((5-fluoro-2,3-dihydrobenzofuran-4-yl)methyl)amino)-7-(trifluoromethyl)-4,5-dihydro-3H-2,4,11, 12a-tetraazabenzo[4,5]cycloocta[1,2,3-cd]inden-3-one] | 1.13 nM
O=C1OCc2ccc(C(F)(F)F)cc2-c2cnc(NCc3c(F)ccc4c3CCO4)n3cnc1c23 [Compound 24, 12-(((5-fluoro-2,3-dihydrobenzofuran-4-yl)methyl)amino)-8-(trifluoromethyl)-3H,5H-4-oxa-2,11,12a-triazabenzo[4,5]cycloocta[1,2,3-cd]inden-3-one] | 4.75 nM
O=C1OCc2ccccc2-c2cnc(NCc3c(F)ccc4c3CCO4)n3cnc1c23 [Compound 6, 12-(((5-fluoro-2,3-dihydrobenzofuran-4-yl)methyl)amino)-3H,5H-4-oxa-2,11,12a-triazabenzo[4,5] cycloocta[1,2,3-cd]inden-3-one] | 0.19 nM

Reference: patent US20240316051A1, “A PHARMACEUTICAL COMBINATION AND USE THEREOF” (Ascentage Pharma (Suzhou) Co., Ltd., priority 2021, published 2024)
